# Assay results published in US12061143B2, “Methods for rapid determinations of antibiotic susceptibility phenotypes” (priority 2018, dated 2024).
# Like-named read-outs stand apart in the source and are kept apart here.
# Key:
# Format in all cases: cell-based
# [1] = test system: A. nosocomialis strain M2; experiment: FAST flow cytometry AST with PB-sQF, bacteria recovered from 10% human blood; details: M2 spiked in 10% human blood, assayed within 8 hrs of simulated blood draw
# Method: Varied counts of bacteria were mixed with human blood and diluted 1:9 (v/v) with bacterial growth medium to desired bacterial concentrations (<10 CFU/mL final solution) and plated to independently confirm CFU/mL blood. Saponin was immediately added and the samples shaken for 15 minutes to achieve selective blood cell lysis. After hemolysis, bacteria were spun down and washed with PBS. […] This allowed comparison of fold distances among all samples as each is individually paired to its own control, as is each replicate.
# To simulate a blood specimen from a patient with bacteremia, the isolates were grown, diluted to the desired CFU/mL in blood (ZenBio, Research Triangle Park, NC) and saponin was added to achieve the final diluted sample. Initial bacterial cultures were prepared using Luria-Bertani (LB) broth for (E. coli) or cation-adjusted Mueller-Hinton broth (CAMHB). The fresh bacterial cultures started from ˜0.05 optical density (OD) by inoculating a 6-mL fresh growth medium with overnight culture were grown in an incubator shaker (MaxQ 4000, Thermal Fisher Scientific, Waltham, MA) at 37° C. and 225 rpm. […] Bacterial densities were determined by plating onto LB plates. […]
# Cytometric data were collected by BD LSRFortessa flow cytometer (Becton Dickinson, Franklin Lake, NY) equipped with a 100 mW, 488 nm laser for the scatter signal. […] Data were recorded with FACSDiVa provided by BD. […]
# E. coli Mu14S = experiment: MIC by broth microdilution AST; details: for MIC: microdilution from pure culture; for MIC (S/I/R): class according to 2016 CLSI handbook
# Method: (§1) Varied counts of bacteria were mixed with human blood and diluted 1:9 (v/v) with bacterial growth medium to desired bacterial concentrations (<10 CFU/mL final solution) and plated to independently confirm CFU/mL blood. Saponin was immediately added and the samples shaken for 15 minutes to achieve selective blood cell lysis. After hemolysis, bacteria were spun down and washed with PBS. The pellets were resuspended in bacterial growth medium and incubated at 37° C. for 2 hours, followed by another 3-hour incubation with antibiotics at various fractions of the minimum inhibition concentration (MIC, as independently determined by microdilution from the pure starting culture, Table 1) for sensitive strains or at the CLSI MIC resistant breakpoints^(12) for the highly resistant strains. Changes in scattered light signals largely resulting from bacterial growth inhibition were monitored by flow cytometry, and the difference in the 2-D scatter histograms with and without antibiotic treatment was quantified with PB-sQF statistics.^(1) Using PB-sQF, distance was calculated for each antibiotic concentration relative to its own no-antibiotic control and expressed as “fold distance” relative to the 99% confidence limit distance between the no-antibiotic control and the sensitive breakpoint. This allowed comparison of fold distances among all samples as each is individually paired to its own control, as is each replicate.
# (§2) All clinical isolates (E. coli strains Mu14S and Mu890, K. pneumoniae strains Mu670 and Mu55, A. nosocomialis strains M2) were obtained from the Georgia Emerging Infection Program (GEIP). The MIC of each isolate was determined by a clinical microbiology laboratory using post blood culture automated AST and confirmed using broth microdilution in our laboratory. The MICs of each strain were measured to be as follows. For A. nosocomialis strain M2, 1 μg/mL tetracycline, 2 μg/mL gentamicin, and >1024 μg/mL ampicillin. For E. coli strain Mu890, 1 μg/mL tetracycline, 8 μg/mL gentamicin, and >1024 μg/mL ampicillin. For E. coli strain Mu14S, >64 μg/mL tetracycline, 8 μg/mL gentamicin, and >1024 μg/mL ampicillin. For K. pneumoniae strain Mu55, >64 μg/mL tetracycline, 1 μg/mL gentamicin, and >1024 μg/mL ampicillin. For K. pneumoniae strain Mu670, 2 μg/mL tetracycline, 4 μg/mL gentamicin, and >1024 μg/mL ampicillin.
# K. pneumoniae Mu670 = experiment: MIC by broth microdilution AST; details: for MIC: microdilution from pure culture; for MIC (S/I/R): class according to 2016 CLSI handbook
# Method: as §1, §2
# A. nosocomialis M2 = experiment: MIC by broth microdilution AST; details: for MIC: microdilution from pure culture; for MIC (S/I/R): class according to 2016 CLSI handbook
# Method: as §1, §2
# K. pneumoniae Mu55 = experiment: MIC by broth microdilution AST; details: for MIC: microdilution from pure culture; for MIC (S/I/R): class according to 2016 CLSI handbook
# Method: as §1, §2
# E. coli Mu890 = experiment: MIC by broth microdilution AST; details: for MIC (S/I/R): class according to 2016 CLSI handbook; for MIC: microdilution from pure culture
# Method: as §1, §2
# E. coli strain Mu14S = experiment: FAST flow cytometry AST with PB-sQF, bacteria recovered from 10% human blood; details: Mu14S treated at each resistant breakpoint (tetracycline 16 μg/mL)
# Method: as §1
# (§3) To simulate a blood specimen from a patient with bacteremia, the isolates were grown, diluted to the desired CFU/mL in blood (ZenBio, Research Triangle Park, NC) and saponin was added to achieve the final diluted sample. Initial bacterial cultures were prepared using Luria-Bertani (LB) broth for (E. coli) or cation-adjusted Mueller-Hinton broth (CAMHB). The fresh bacterial cultures started from ˜0.05 optical density (OD) by inoculating a 6-mL fresh growth medium with overnight culture were grown in an incubator shaker (MaxQ 4000, Thermal Fisher Scientific, Waltham, MA) at 37° C. and 225 rpm. After the culture reached mid-log phase, bacteria were collected and diluted into ˜10 CFU/mL through serial 10-fold dilutions. Bacterial densities were determined by plating onto LB plates. The final 10-fold dilution was performed by adding 500 μL of 100 CFU/mL into 4500 μL of 10% human blood in medium.
# (§4) A 2.5% (w/v) of saponin solution was prepared, sonicated (Branson 2510, Emerson, St. Louis, MO) for 20 minutes and spun down with a clinical centrifuge (Centrific Model 228, Fisher Scientific, Waltham, MA) for 4 minutes. The supernatant cleared of particulates was collected. 500 μL of 2.5% saponin was then added to the 5 mL of 10% human blood sample with ˜10 CFU/mL, described above and the mixtures were shaken at 300 rpm for 15 minutes at 37° C. After the saponin treatment, the bacteria were pelleted and washed with 2 mL of phosphate buffered saline (PBS) (Life Technologies, Carlsbad, CA) using a clinical centrifuge for 2 minutes. Bacterial growth medium (2.5 mL) was then added to the tube and incubated for 2 hours at 37° C. and 225 rpm.
# (§5) After the 2-hour incubation, 500-μL aliquots of the suspension were added to each of 4 wells in a 12-well microtiter plate that contained 500 μL of growth medium with or without antibiotic at 2-fold of specified concentrations. The plate was then incubated at 37° C. for 3 hours. Bacteria were collected by centrifugation (Centrifuge 5417R, Eppendorf) and resuspended in 200 μL of PBS for flow cytometry detection. To ensure each clinical isolate was tested at its MIC values of the tested antibiotics, the initial bacterial cultures at the 1000 CFU/mL dilution were also tested for each experiment (FIGS. 4A-4F, 5A-5F, 7A-7F, 8A-8F, and 9A-9F), confirming that the antibiotic concentrations indeed inhibited bacterial growth.
# (§6) Cytometric data were collected by BD LSRFortessa flow cytometer (Becton Dickinson, Franklin Lake, NY) equipped with a 100 mW, 488 nm laser for the scatter signal. […]
# E. coli strain Mu890 = experiment: as above; details: Mu890 treated with 32 μg/mL (Enterobacteriaceae resistance breakpoint), vs no-antibiotic control
# Method: as §1, §3, §4, §5, §6
# [2] = test system: 10% human blood samples without bacteria inoculation; experiment: Antibiotic-treated 10% human blood only control (no bacteria), flow cytometry; details: 10% human blood without bacteria, around the resistance breakpoints of Enterobacteriaceae
# Method: FIGS. 6A-6D. Antibiotic-treated 10% human blood only results. Cytometric data with (FIG. 6A) Ampicillin (FIG. 6B) Tetracycline (FIG. 6C) Gentamicin. The greyscale plots are the no-antibiotic controls and the black contour plots are the antibiotic-treated data with the antibiotic concentration indicated at each plot. (FIG. 6D) PB-sQF results for FIGS. 6A-6C). […] For each antibiotic, the resistant breakpoints of Enterobacteriaceae are 16 μg/mL for tetracycline and gentamicin and 32 μg/mL for ampicillin.
# This confirms that the gentamicin sensitivity of Mu14S observed after blood culture^(1) can also be observed on much shorter timescales with FAST. Overnight plating confirms that initial Mu14S counts were 3, 2, 5 and CFU/mL for tetracycline, gentamicin and ampicillin data after 10-fold dilution of the blood/bacteria mixture, corresponding to FAST being performed on whole blood samples containing ˜30, ˜20 and ˜50 CFU/mL. […] Thus, diluting bacterimic blood specimens 1:9 (v:v) directly into saponin-containing growth medium provides a path to ASTs within 8 hours from initial blood draw, with excellent results matching independent (36-44 hrs) MIC determinations from pure, overnight cultures (˜10^8 CFU/mL) that could only be initiated after (˜24 hr) positive blood culture.
# [3] = test system: Lab-strain E. coli (ATCC); experiment: FAST with low bacterial counts (500 counts by flow cytometry); details: each antibiotic at MIC, ¼ MIC and 1/16 MIC, bars beyond the 99% confidence line
# Source text: FIG. 14. Bactericidal Antibiotic-induced changes for low counts of E. coli. Lab-strain E. coli (ATCC) ASTs performed with 500 counts by flow cytometry with gentamicin (Gen), penicillin G (PenG), and tetracycline (Tet) each at MIC, ¼ MIC and 1/16 MIC. This strain is seen to be sensitive to all three antibiotics, as the bars extend beyond the 99% confidence line.
# While both morphology and growth inhibition occur upon exposure to antibiotics near the minimum inhibitory concentration, standard ASTs are based on growth inhibition alone. The presence of bacteria is clearly indicated by the presence of a particular scattering peak in the multidimensional histogram. This is much more sensitive and less affected by background than is shifts in a peak resulting from morphological changes upon antibiotic exposure. […] For even a few hundred counts, the presence of a bacterial population can be readily assessed with flow cytometry, but error bars and statistical distances must be properly determined relative to no-antibiotic controls. When too few counts for triplicate runs exist, control and each antibiotic exposure histograms are treated as probability distributions that are representative of the true mother distribution for each condition. Each histogram is binned (either adaptively with probability binning or using regular bins) and the distribution of data within each bin is determined. […]
# 100% sheep blood only = experiment: Pre-blood culture AST, 100% sheep blood only samples; details: no-antibiotic to 1×MIC
# Method: (§7) To search for the condition to separate bacteria from the blood cells, sheep blood was used as a substitute for human blood. In order to remove the blood cells that have a concentration that is 10^6 to 10^7 times higher than the bacteria, 100 μL of 10% (w/v) saponin was added to 1 mL of sheep blood that was spiked with either 100 μL of LB or 10^4 CFU/mL E. coli strain ATCC 33456 (final concentration ˜10^3 CFU/mL) and incubated for 15 minutes at room temperature to lyse the blood cells. The same procedure was applied to 12 samples loaded in eppendorf tubes. These samples were then washed with PBS and resuspended in 500 μL L B broth. All 12 samples were added to the 12-well plate loaded with 480 μL of LB broth and/or penicillin g with 2× higher desired concentrations and 20 μL, 45 μM of MH-IR786. The plate was incubated for 5 hours. Each sample was then collected and analyzed by flow cytometry.
# [4] = test system: E. coli strain ATCC 33456; experiment: Pre-blood culture AST with sheep blood, flow cytometry and PB-sQF
# Method: as §7
# [5] = test system: E. coli strain ATCC 33456; experiment: MIC of lab strain E. coli
# [6] = Escherichia coli, read-out: MIC
# [7] = Klebsiella pneumoniae, read-out: MIC
# [8] = Acinetobacter nosocomialis, read-out: MIC
# [9] = Escherichia coli, MU890, E. coli Mu890, read-out: MIC
SMILES,MIC (E. coli Mu14S; [6]),MIC (S/I/R) (E. coli Mu14S),MIC (E. coli Mu14S),MIC (K. pneumoniae Mu670; [7]),MIC (S/I/R) (K. pneumoniae Mu670),MIC (A. nosocomialis M2; [8]),MIC (S/I/R) (A. nosocomialis M2),MIC (A. nosocomialis M2),MIC (K. pneumoniae Mu55; [7]),MIC (S/I/R) (K. pneumoniae Mu55),MIC (K. pneumoniae Mu55),MIC (S/I/R) (E. coli Mu890; E. coli Mu890),MIC (E. coli Mu890; [9]),also measured
CC1(C)S[C@@H]2[C@H](NC(=O)[C@H](N)c3ccccc3)C(=O)N2[C@H]1C(=O)O [Ampicillin],> 1020 mg/L,(R),> 1024 mg/L,> 1020 mg/L,(R),> 1020 mg/L,(R),> 1024 mg/L,> 1020 mg/L,(R),> 1024 mg/L,(R),> 1020 mg/L,PB-sQF FAST susceptibility [1]: resistant; MIC (K. pneumoniae Mu670): > 1024 mg/L; FAST antibiotic-induced scatter signal change (E. coli strain Mu14S): remained statistically unchanged; FAST antibiotic-induced scatter signal change (E. coli strain Mu890): indistinguishable from those of the no-antibiotic control; scattered light histograms change [2]: do not significantly change
CN(C)[C@@H]1C(O)=C(C(N)=O)C(=O)[C@@]2(O)C(O)=C3C(=O)c4c(O)cccc4[C@@](C)(O)[C@H]3C[C@@H]12 [Tetracycline],> 64 mg/L,(R),>64 mg/L,2 mg/L,(S),1 mg/L,(S),1 mg/L,> 64 mg/L,(R),>64 mg/L,(S),1 mg/L,"MIC (E. coli Mu890; E. coli Mu890): 1 mg/L; MIC (E. coli Mu890; E. coli Mu890, listed as tetracycline): 2 mg/L"
CC1(C)S[C@@H]2[C@H](NC(=O)Cc3ccccc3)C(=O)N2[C@H]1C(=O)O [penicillin g],,,,,,,,,,,,,,"PB-sQF AST susceptibility at low counts [3]: sensitive; cytometric data of blood-only samples (100% sheep blood only): remained very similar to each other; cytometric data, growth inhibition ([4]; 1000 CFU/mL E. coli spiked sheep blood, 1×MIC, 5 hours): clear growth inhibition; PB-sQF distance ([4]; 1000 CFU/mL and 10^5 CFU/mL spiked sheep blood, from 1/16×MIC to 1×MIC): clear increment of distance increases; 1×MIC [5]: 32 mg/L"
